Experiments:
Raji cells = format: cell-based
H69AR cells = format: cell-based
KB3-1 cells = format: cell-based; details: with immunotoxin, data not shown
SKOV3 = assay: WST-1 viability of SKOV3 cells; format: cell-based; details: with immunotoxin, data not shown
Procedure: The inhibition of protein synthesis in treated cells was assayed by the addition of 3H-leucine (2 μCi/mL) for 4 hours in 96-well plates. Filter mats and samples were used to count cells using a Wallac beta plate reader. Water-soluble tetrazolium-1 (WST-1; Roche) was added to 96-well plates at a final concentration of 10% and absorbance measured at 450 nm to measure cytotoxicity. Te CellTiter-Glo Luminescent Cell Viability Assay kit (Promega) was used to assay ATP. The Caspase-Glo kit from Promega was used to detect Caspase 3/7. Caspase 3 activity was measured using one of two fluorescent substrates Caspase 3 Fluorometric Assay Kit (R&D Systems) or Caspase 3 Fluorometric-KIT (Invitrogen). The results are reported in fluorescent units per microgram of cell protein. For short-exposure cell-killing assays: KB3-1 cells were seeded in six-well plates at a density of 5×10^4/mL. The next day, cells were treated for 4 hours with either immunotoxin alone, ABT-737 alone, or combinations of both as indicated. At the end of the treatment, the cells were washed with PBS, trypsinized, and re-plated and incubated for 6 more days. Finally, the cells were washed with PBS and then stained with methylene blue (0.5%) in methanol/water (50:50 by volume).

ATF4 in KB3-1 cells = assay: ER stress response (ATF4 immunoblot) in KB3-1 cells; format: cell-based; details: 4 hours, ABT-737 10 μmol/L, DTT 10 mmol/L
Excerpt: (§1) Immunoblot analysis is inadequate to detect the cellular uptake of immunotoxins, added at subnanomolar concentrations. Thus, we could not document directly that additional molecules of toxin were delivered to the cytosol. Instead, we sought other evidence that ABT-737 was directly or indirectly interacting with the ER. In various cell types, Bcl-2 family members are found associated with the ER (Oakes S A, et al., Proc Natl Acad Sci USA 2005; 102:105-10 and Scorrano L, et al., Science 2003; 300:135-9). To test if ABT-737 interacted with the ER and provoked an ER stress response, we incubated KB3-1 or DLD1 cells for 4 hours with either ABT-737 or with DTT; the latter being a well-known mediator of ER stress. Treated cell extracts were analyzed for the transcription factor ATF4 (Bernales S, Papa F R, Walter P. Annu Rev Cell Dev Biol 2006; 22:487-508). […] Overall, our results are consistent with ABT-737 acting on the ER and causing, either directly or indirectly, an increased translocation of PE- or CET-based immunotoxins to the cytosol.

ATF4 in DLD1 cells = assay: ER stress response (ATF4 immunoblot) in DLD1 cells; format: cell-based; details: 4 hours, ABT-737 10 μmol/L, DTT 10 mmol/L
Excerpt: as §1

[1] = test system: caspase 3/7 in DLD1 cells; format: cell-based
CD22 (human) = CD22 (human) (UniProt P20273); assay: cell-based or functional assay
Sequence of UniProt P20273 (P20273 20-847): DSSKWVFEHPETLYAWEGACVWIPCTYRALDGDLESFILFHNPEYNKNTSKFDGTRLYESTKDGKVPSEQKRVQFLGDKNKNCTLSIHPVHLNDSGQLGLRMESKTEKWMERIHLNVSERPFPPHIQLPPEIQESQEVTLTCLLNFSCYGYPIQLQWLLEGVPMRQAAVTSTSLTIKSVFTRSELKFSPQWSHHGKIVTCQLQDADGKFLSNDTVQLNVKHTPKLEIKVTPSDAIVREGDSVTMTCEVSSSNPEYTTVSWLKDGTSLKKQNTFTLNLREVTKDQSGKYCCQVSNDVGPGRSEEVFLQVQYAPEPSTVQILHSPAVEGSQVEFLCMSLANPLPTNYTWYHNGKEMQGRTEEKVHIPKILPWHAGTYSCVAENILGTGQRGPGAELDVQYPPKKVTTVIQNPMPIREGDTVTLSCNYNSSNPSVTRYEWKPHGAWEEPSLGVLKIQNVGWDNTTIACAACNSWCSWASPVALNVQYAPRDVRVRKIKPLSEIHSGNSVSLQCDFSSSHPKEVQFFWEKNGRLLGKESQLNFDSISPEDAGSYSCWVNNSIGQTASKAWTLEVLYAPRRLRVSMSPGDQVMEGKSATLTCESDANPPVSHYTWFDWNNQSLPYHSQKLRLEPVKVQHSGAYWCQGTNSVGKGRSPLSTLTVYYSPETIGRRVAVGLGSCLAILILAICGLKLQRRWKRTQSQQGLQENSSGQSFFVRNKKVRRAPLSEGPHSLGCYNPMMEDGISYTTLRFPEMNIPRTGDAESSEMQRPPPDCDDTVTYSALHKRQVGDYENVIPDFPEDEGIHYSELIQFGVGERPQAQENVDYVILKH

CC1(C)CCC(c2ccc(Cl)cc2)=C(CN2CCN(c3ccc(C(=O)NS(=O)(=O)c4ccc(N[C@H](CCN5CCOCC5)CSc5ccccc5)c(S(=O)(=O)C(F)(F)F)c4)cc3)CC2)C1 [ABT-263]
apoptosis, ABT-263 alone (Raji cells): little or no apoptosis | total apoptosis, in combination with BL22 (Raji cells): 62% | total apoptosis, in combination with HA22 (Raji cells): 68% | effect of combination with HB21-PE40 (H69AR cells): synergistic and leads to cell death via apoptosis | sensitivity to killing, agent alone (H69AR cells): resistant | enhancement of KB3-1 killing (KB3-1 cells): similarly enhanced | enhancement of SKOV3 killing (SKOV3): similarly enhanced

O[C@@H](CS)[C@@H](O)CS [DTT]
ER stress response (ATF4) (ATF4 in KB3-1 cells): strongly upregulated | ER stress response (ATF4) (ATF4 in DLD1 cells): strongly upregulated

CN[C@@H]1C[C@H]2O[C@@](C)([C@@H]1OC)n1c3ccccc3c3c4c(c5c6ccccc6n2c5c31)C(=O)NC4 [staurosporine]
apoptosis, positive control for generating maximal apoptosis (Raji cells): ~74%

CC(C)C[C@H](NC(=O)[C@H](Cc1ccccc1)NC(=O)c1cnccn1)B(O)O [velcade, bortezomib]
apoptosis by caspase 3/7 activity [1]: increased caspase 3/7 activity

BL22 (from UniProt P11439 278-389; P11439 406-638)
total apoptosis of Raji cells in 24 hrs (Annexin V / 7-AAD flow cytometry) (CD22 (human)): 47%

— patent US20120276190A1 (priority 2009, published 2012)
